Test results published in US12522594B2, “2-heteroaryl-3-oxo-2,3-dihydropyridazine-4-carboxamides for the treatment of cancer” (Deutsches Krebsforschungszentrum, priority 2017, dated 2026).

Key:
Type in all cases: cell-based
AHR [1] = biological target: T1, AHR (Homo sapiens, UniProt P35869); assay: In vitro assay 3: AHR-regulated CYP1A1 expression in human cell line (U937, qPCR, KA stimulation); settings: U937 cells, 200 uM KA, 6 hours, CYP1A1 expression by qPCR; read-out: Assay 3: Hum CYP1A1 Antagonism IC50
T1 sequence (P35869 11-848): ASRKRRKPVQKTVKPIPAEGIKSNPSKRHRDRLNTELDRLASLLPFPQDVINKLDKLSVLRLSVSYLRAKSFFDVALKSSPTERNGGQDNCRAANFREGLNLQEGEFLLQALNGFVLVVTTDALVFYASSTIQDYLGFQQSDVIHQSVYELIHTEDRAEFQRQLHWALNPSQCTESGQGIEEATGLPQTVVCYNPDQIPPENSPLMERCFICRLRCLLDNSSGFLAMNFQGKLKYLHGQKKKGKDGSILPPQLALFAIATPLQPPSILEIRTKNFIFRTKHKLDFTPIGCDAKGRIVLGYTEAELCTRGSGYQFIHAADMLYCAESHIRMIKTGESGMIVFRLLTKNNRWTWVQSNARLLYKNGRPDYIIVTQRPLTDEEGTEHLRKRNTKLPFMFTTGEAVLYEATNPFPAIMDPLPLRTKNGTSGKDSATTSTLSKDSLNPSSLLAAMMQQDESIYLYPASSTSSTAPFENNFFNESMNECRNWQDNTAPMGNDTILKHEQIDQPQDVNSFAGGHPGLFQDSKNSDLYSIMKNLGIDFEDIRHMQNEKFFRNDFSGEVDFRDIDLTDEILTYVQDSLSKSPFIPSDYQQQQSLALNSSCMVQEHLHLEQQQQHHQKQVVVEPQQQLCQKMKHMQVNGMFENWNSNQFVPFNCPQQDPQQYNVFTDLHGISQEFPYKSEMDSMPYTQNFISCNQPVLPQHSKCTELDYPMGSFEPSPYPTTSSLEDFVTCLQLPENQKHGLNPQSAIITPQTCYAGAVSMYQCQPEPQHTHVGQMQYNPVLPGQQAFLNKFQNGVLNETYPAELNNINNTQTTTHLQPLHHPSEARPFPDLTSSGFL
Protocol: In Vitro Assay 3: AHR-Regulated CYP1A1 Expression in Human Cell Line
To assess the AHR inhibitory activity of the substances described in this application, the ability thereof to antagonise ligand-induced AHR gene regulation in a dose-dependent manner was quantified. For this purpose, quantitative PCR analysis was used to determine expression of the AHR-regulated gene CYP1A1 in a human monocytic U937 cell line upon stimulation with 200 uM KA in the presence and absence of AHR inhibitor. […] CYP1A1 expression was induced with 200 uM KA (positive control) in the presence or absence of the substances for 6 hours. Human U937 cells were typically incubated with eight different concentrations of the substances (1 nM, 3 nM, 10 nM, 30 nM, 100 nM, 300 nM, 1 uM and 3 uM) and analyzed in duplicate on the same microtitre plate. […] Unstimulated cells were used as the negative control. Taqman probes for human CYP1A1 (Hs01054797_g1) and human HPRT (Hs02800695_m1) were used to analyze fold expression of CYP1A1 of HPRT. Quantitation was performed on a Taqman SDS7900HT.

AHR [2] = biological target: T1, AHR; assay: In vitro assay 1: antagonism in human cell line (transactivation assay, U87 cells prestimulated with kynurenic acid, DRE firefly luciferase reporter); parameters: host or cells: U87 glioblastoma cells, stably transfected with DRE firefly luciferase and renilla reporter constructs; settings: 150 uM kynurenic acid, 20 hours, read-out: Assay 1: AHR-luc Hum Antagonism IC50
Procedure, shortened: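 Antagonism measured after kynurenic acid prestimulation in U87 cells that express AHR endogenously and stably harbor a firefly luciferase gene under DRE control plus a constitutive renilla construct. Positive and negative controls served for normalization.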

AHR [3] = biological target: T1, AHR; assay: In vitro assay 2: agonism in human cell line (transactivation assay, U87 cells, DRE firefly luciferase reporter); parameters: host or cells: U87 glioblastoma cells, stably transfected with DRE firefly luciferase and renilla reporter constructs; settings: no kynurenic acid, 20 hours, read-out: Assay 2: AHR-luc Hum Agonism IC50
Procedure, shortened: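 Agonist readout: DRE firefly luciferase, with constitutive renilla reporter, in stably transfected U87 cells expressing AHR endogenously. Normalization used positive control (300 uM kynurenic acid) and negative control.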

Structure (SMILES)	IC50 (AHR [1]) [nM]	IC50 (AHR [2]) [nM]	IC50 (AHR [3]) [nM]
Cn1cc(-n2nc(-c3ccc(Cl)cc3)cc(C(=O)N[C@@H]3CCC[C@]3(C)O)c2=O)cn1 (relative stereo) [Example 317, 6-(4-Chlorophenyl)-N-[(cis)-2-hydroxy-2-methylcyclopentyl]-2-(1-methyl-1H-pyrazol-4-yl)-3-oxo-2,3-dihydropyridazine-4-carboxamide]	37.3	30.3	> 20000
O=C(N[C@H]1COC[C@H]1O)c1cc(-c2ccc(Cl)cc2)nn(-c2cccnc2)c1=O (single isomer, unassigned) [Example 172, 6-(4-chlorophenyl)-N-[(cis)-4-hydroxytetrahydrofuran-3-yl]-3-oxo-2-(pyridin-3-yl)-2,3-dihydropyridazine-4-carboxamide]	23.4	29.5	> 20000
O=C(N[C@H]1COC[C@H]1O)c1cc(-c2ccc(Cl)cc2)nn(-c2cccnc2)c1=O (single isomer, unassigned) [Example 173, 6-(4-Chlorophenyl)-N-[(cis)-4-hydroxytetrahydrofuran-3-yl]-3-oxo-2-(pyridin-3-yl)-2,3-dihydropyridazine-4-carboxamide]	140	54.9	> 20000
O=C(N[C@@H]1COC[C@@H]1O)c1cc(-c2ccc(C(F)(F)F)cc2)nn(-c2cccnc2)c1=O (single isomer, unassigned) [Example 229, (+)-N-cis-4-Hydroxytetra-hydrofuran-3-yl-3-oxo-2-(pyridin-3-yl)-6-[4-(trifluoromethyl)phenyl]-2,3-dihydropyridazine-4-carboxamide]	12.2	7.09	> 20000
Cn1cc(-n2nc(-c3ccc(C(F)F)cc3)cc(C(=O)N[C@@H]3COC[C@@H]3O)c2=O)cn1 (single isomer, unassigned) [Example 315, 6-[4-(Difluoromethyl)phenyl]-N-[(cis)-4-hydroxytetrahydro-furan-3-yl]-2-(1-methyl-1H-pyrazol-4-yl)-3-oxo-2,3-dihydropyridazine-4-carboxamide]	11.9	15.9	> 20000
Cn1cc(-n2nc(-c3ccc(Cl)cc3)cc(C(=O)NCC(O)C(F)(F)F)c2=O)cn1 (single isomer, unassigned; (+)) [Example 20, (+)-6-(4-Chlorophenyl)-2-(1-methyl-1H-pyrazol-4-yl)-3-oxo-N-(3,3,3-trifluoro-2-hydroxypropyl)-2,3-dihydropyridazine-4-carboxamide]	63.1	26.7	> 20000
O=C(NCC(O)C(F)(F)F)c1cc(-c2ccc(Cl)cc2)nn(-c2cccnc2)c1=O (single isomer, unassigned; (+)) [Example 90, (+)-6-(4-Chlorophenyl)-3-oxo-2-(pyridin-3-yl)-N-(3,3,3-trifluoro-2-hydroxypropyl)-2,3-dihydropyridazine-4-carboxamide]	40.2	21.7	> 20000
O=C(NCC(O)C(F)F)c1cc(-c2ccc(Cl)cc2)nn(-c2cccnc2)c1=O (single isomer, unassigned; (-)) [Example 87, (−)-6-(4-Chlorophenyl)-N-(3,3-difluoro-2-hydroxypropyl)-3-oxo-2-(pyridin-3-yl)-2,3-dihydropyridazine-4-carboxamide]	21.5	29.6	> 20000

Compounds with a lower IC50 (AHR [1]), results first:

IC50 (AHR [1]) [nM]	IC50 (AHR [2]) [nM]	IC50 (AHR [3]) [nM]	Structure (SMILES)
9.93	7.89	> 20000	Cn1cc(-n2nc(-c3ccc(C(F)(F)F)cc3)cc(C(=O)N[C@@H]3COC[C@@H]3O)c2=O)cn1 (single isomer, unassigned) [Example 231, (−)-N-cis-4-Hydroxytetra-hydrofuran-3-yl-2-(1-methyl-1H-pyrazol-4-yl)-3-oxo-6-[4-(trifluoromethyl)phenyl]-2,3-dihydropyridazine-4-carboxamide]
8.7	11.2	> 20000	O=C(NC(CO)C1CC1)c1cc(-c2ccc(Cl)cc2)nn(-c2cccnc2)c1=O (racemic) [Example 77, 6-(4-Chlorophenyl)-N-[(1RS)-1-cyclopropyl-2-hydroxyethyl]-3-oxo-2-(pyridin-3-yl)-2,3-dihydropyridazine-4-carboxamide]
7.01	2.44	> 20000	O=C(N[C@@H]1CC[C@@H]1O)c1cc(-c2ccc(C(F)(F)F)cc2)nn(-c2cccnc2)c1=O (single isomer, unassigned) [Example 217, (+)-N-cis-2- Hydroxycyclobutyl-3-oxo-2-(pyridin-3-yl)-6-[4-(trifluoromethyl)phenyl]-2,3-dihydropyridazine-4-carboxamide]
6.43	3.92	> 20000	Cn1cc(-n2nc(-c3ccc(Cl)cc3)cc(C(=O)NCC(O)C(F)(F)F)c2=O)cn1 (single isomer, unassigned; (-)) [Example 19, (−)-6-(4-Chlorophenyl)-2-(1-methyl-1H-pyrazol-4-yl)-3-oxo-N-(3,3,3-trifluoro-2-hydroxypropyl)-2,3-dihydropyridazine-4-carboxamide]
4.81	6.68	> 20000	O=C(NCC(O)C(F)(F)F)c1cc(-c2ccc(Cl)cc2)nn(-c2cccnc2)c1=O (racemic) [Example 78, 6-(4-Chlorophenyl)-3-oxo-2-(pyridin-3-yl)-N-[(2RS)-3,3,3-trifluoro-2-hydroxypropyl]-2,3-dihydropyridazine-4-carboxamide]
4.01	2.78	> 20000	Cn1cc(-n2nc(-c3ccc(C(F)(F)F)cc3)cc(C(=O)N[C@@H]3COC[C@@H]3O)c2=O)cn1 (single isomer, unassigned) [Example 218, (+)-N-cis-4- Hydroxytetrahyd rofuran-3-yl-2-(1-methyl-1H-pyrazol-4-yl)-3-oxo-6-[4-(trifluoromethyl)phenyl]-2,3-dihydropyridazine-4-carboxamide]
3.03	2.57	> 20000	Cc1ccc(-c2cc(C(=O)NC(CO)C(C)C)c(=O)n(-c3cnn(C)c3)n2)cc1 (single isomer, unassigned) [Example 2, N-(1-Hydroxy-3-methylbutan-2-yl)-6-(4-methylphenyl)-2-(1-methyl-1H-pyrazol-4-yl)-3-oxo-2,3-dihydropyridazine-4-carboxamide]
2.76	19	> 20000	O=C(NC(CO)C1CC1)c1cc(-c2ccc(Cl)cc2)nn(-c2cccnc2)c1=O (single isomer, unassigned; (-)) [Example 92, (−)-6-(4-Chlorophenyl)-N-(1-cyclopropyl-2-hydroxyethyl)-3-oxo-2-(pyridin-3-yl)-2,3-dihydropyridazine-4-carboxamide]
2.64	4.8	> 20000	O=C(NCC(O)C(F)(F)F)c1cc(-c2ccc(Cl)cc2)nn(-c2cccnc2)c1=O (single isomer, unassigned; (-)) [Example 89, (−)-6-(4-Chlorophenyl)-3-oxo-2-(pyridin-3-yl)-N-(3,3,3-trifluoro-2-hydroxypropyl)-2,3-dihydropyridazine-4-carboxamide]
